Assay results as given in BindingDB's records for doi:10.7270/Q2W37TVH (Novartis Pharma, 1997).

Biological target: Dihydroorotate dehydrogenase (quinone), mitochondrial (Homo sapiens, UniProt Q02127)
Test: Spectrophotometric Assay
Excerpt: Spectrophotometric assay using crude human, recombinant DHODHase.

Dihydroorotate dehydrogenase (quinone), mitochondrial, sequence (Q02127 whole entry): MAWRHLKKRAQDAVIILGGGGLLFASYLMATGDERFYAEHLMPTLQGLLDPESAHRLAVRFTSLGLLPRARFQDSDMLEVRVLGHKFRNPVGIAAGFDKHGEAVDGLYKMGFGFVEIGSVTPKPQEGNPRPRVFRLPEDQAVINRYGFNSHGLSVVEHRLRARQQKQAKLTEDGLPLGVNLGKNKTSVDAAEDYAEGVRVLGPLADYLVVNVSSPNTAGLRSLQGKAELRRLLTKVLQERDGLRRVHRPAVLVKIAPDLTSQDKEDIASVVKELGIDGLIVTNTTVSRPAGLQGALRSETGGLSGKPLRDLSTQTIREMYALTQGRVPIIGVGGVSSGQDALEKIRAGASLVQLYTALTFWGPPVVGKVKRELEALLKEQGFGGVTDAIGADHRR

Compound	IC50 [µM]
CC(=O)C(C#N)C(=O)Nc1ccccc1 (stereo not drawn) [Alpha-cyano-beta-hydroxy enamide, 2]	15.2
N#Cc1ccc(NC(=O)C(C#N)C(=O)C2CC2)cc1 (stereo not drawn) [Alpha-cyano-beta-hydroxy enamide, 6]	0.6
N#C/C(C(=O)Nc1ccc(C(F)(F)F)cc1)=C1/CCCCO1 [Tetrahydropyranyl derivative, 8 (E)]	> 50
N#C/C(C(=O)Nc1ccc(C(F)(F)F)cc1)=C1\CCCCO1 [Tetrahydropyranyl derivative, 8 (Z)]	> 50

Continued, values first:

IC50 [µM]	Compound
1.3	CC(=O)C(C#N)C(=O)Nc1ccc(C#N)cc1 (stereo not drawn) [Alpha-cyano-beta-hydroxy enamide, 3]
16.2	CC(C)(C)C(=O)C(C#N)C(=O)Nc1ccc(C(F)(F)F)cc1 (stereo not drawn) [Alpha-cyano-beta-hydroxy enamide, 4]
0.13	CC(C)(C)CCC(=O)C(C#N)C(=O)Nc1ccc(C(F)(F)F)cc1 (stereo not drawn) [Alpha-cyano-beta-hydroxy enamide, 5]
> 50	N#C/C(C(=O)Nc1ccc(C(F)(F)F)cc1)=C1/CCOC1 [Tetrahydrofuranyl derivative, 7 (E)]
> 50	N#C/C(C(=O)Nc1ccc(C(F)(F)F)cc1)=C1\CCCO1 [Tetrahydrofuranyl derivative, 7 (Z)]
